Literature values, collected in patent publication US20130338095A1, “Chemosensory Receptor Ligand-Based Therapies” (ELCELYX THERAPEUTICS, INC., priority 2010, published 2013).

How the values were obtained:
GLP-1 = details: rats
[1] = patients with jejunostomy
[2] = bitter phytonutrients in common plant foods

Compound | Taste quality [2] | other results
OCCN1C[C@H](O)[C@@H](O)[C@H](O)[C@H]1CO [miglitol] | – | increase in GLP-1 with administration of a DPP-IV inhibitor (GLP-1): synergistic
GLP-2: gut hormone, glucagon-like peptide 2 (HADGSFSDEMNTILDNLAARDFINWLIQTKITD; Glucagon-like peptide 2; UniProt P01275 146-178, looked up) | – | intestinal absorption of energy [1]: improve; intestinal wet weight absorption [1]: improve
O=C(O[C@@H]1Cc2c(O)cc(O)cc2O[C@@H]1c1ccc(O)c(O)c1)c1cc(O)c(O)c(O)c1 [Epicatechin gallate] | Bitter and astringent | –
C[S+]([O-])CCCN=C=S (stereo not shown) [3-Methyl-sulfinylpropyl isothiocyanate] | Acrid mustard oils | –
O=c1c(-c2ccc(O)cc2)coc2cc(O[C@@H]3O[C@H](CO)[C@@H](O)[C@H](O)[C@H]3O)ccc12 [Daidzin] | Astringent | –
CC1(C)O[C@H]2CC(=O)OC[C@]23[C@H]2CC[C@@]4(C)[C@H](c5ccoc5)OC(=O)[C@H]5O[C@]54[C@]2(C)C(=O)C[C@@H]13 [Limonin] | Bitter | –
COc1ccc(-c2cc(=O)c3c(OC)c(OC)c(OC)c(OC)c3o2)cc1OC [Nobiletin] | Bitter | –
O=c1c(O)c(-c2ccc(O)c(O)c2)oc2cc(O)cc(O)c12 [Quercetin] | Bitter | –
C=CC1CNC(=S)O1 (stereo not shown) [Goitrin 5-vinyl-2-oxazolidine thione, 5-vinyl-2-oxazolidine thione] | Bitter | –
